The values below come from publication PMC11201828, “A Novel Dimeric Short Peptide Derived from α-Defensin-Related Rattusin with Improved Antimicrobial and DNA-Binding Activities” (Biomolecules, 2024).

Values after ≈ are worked out from the molar mass of the structure shown. Positions of bridges follow the written chain, without caps; N, C: chain ends. Residues, ends and D or L forms follow the SMILES beside them. Chains are numbered I, II in the order given.

Test [1] relates to MRSA CCARM 3089. The test is classed as cell-based, methicillin-resistant Staphylococcus aureus. To be noted: CCARM 3089, 24 h. On the procedure:
(§1) The minimal inhibitory concentrations (MICs) of the peptides were determined following the broth microdilution method recommended by the Clinical and Laboratory Standards Institute (CLSI). Briefly, bacteria in their mid-logarithmic growth phase were diluted in Mueller–Hinton broth (MHB) (Difco, Franklin Lakes, NJ, USA) and aliquoted into a 96-well microtiter plate at a density of 4 × 10^6 CFU/well. The assay included both Gram-negative bacteria (Escherichia coli, Salmonella typhimurium, and Pseudomonas aeruginosa) and Gram-positive bacteria (Bacillus subtilis, Staphylococcus aureus, and Staphylococcus epidermidis), as well as methicillin-resistant Staphylococcus aureus strains (MRSA: CCARM 3089, CCARM 3090, CCARM 3095). The samples were subjected to a two-fold serial dilution before being added to the wells, and the plate was incubated at 37 °C for 24 h. The MIC was defined as the lowest peptide concentration that prevented visible bacterial growth. All experiments were conducted in triplicate and included appropriate growth and sterility controls.

Test [2] relates to MRSA CCARM 3090. The test is classed as cell-based, methicillin-resistant Staphylococcus aureus. To be noted: CCARM 3090, 24 h. The protocol:
as §1

Test [3] has as its system MRSA CCARM 3095. The test is classed as cell-based, methicillin-resistant Staphylococcus aureus. To be noted: CCARM 3095, 24 h. On the procedure: as §1
Test [4] relates to S. aureus cytoplasmic membrane. Description: Membrane depolarization assay, DiSC3-(5) dye. The test is classed as cell-based, Staphylococcus aureus. To be noted: intact S. aureus; 32 µM F2, 4 µM melittin, 16 µM buforin-2; peptide added after 300 s; Figure 2. The protocol:
The cytoplasmic membrane depolarization activity of the peptides was assessed using the membrane-potential-sensitive dye DiSC3-(5), following methodologies previously described in the literature. Staphylococcus aureus was cultured in Luria–Bertani (LB) broth at 37 °C until reaching an optical density (O.D.) at 600 nm of 0.3–0.4, indicative of mid-logarithmic phase growth. The cells were then washed with a buffer containing 20 mM glucose and 5 mM HEPES, and the cell suspension was diluted to an O.D. 600 of 0.05 in the same buffer. Potassium chloride (KCl) was added to achieve a final concentration of 100 mM to equilibrate potassium ion levels. The concentrations used for each peptide in our membrane depolarization assays were based on their respective MICs: 32 µM for F2, 4 µM for Melittin, and 16 µM for Buferin-2.
Fluorescence was monitored using an F-4500 FL fluorescence spectrophotometer (Shimadzu, Kyoto, Japan) with excitation and emission wavelengths set at 622 nm and 670 nm, respectively. Melittin, known for its membrane-disrupting properties, served as a positive control, while buforin-2, which translocates across membranes without causing depolarization, acted as a negative control. Both melittin and buforin-2 were tested at concentrations twice their minimal inhibitory concentration (MIC) levels.

Test [5] concerns S. aureus cell membranes. The test can be described thus: SYTOX Green uptake assay. The test is classed as cell-based, Staphylococcus aureus. To be noted: 32 µM F2, 4 µM melittin, 16 µM buforin-2, Figure 3. The protocol: The membrane permeabilization activity of the peptides was determined using the SYTOX Green uptake assay, as described previously. S. aureus was cultured in LB broth at 37 °C until it reached an optical density (O.D.) at 600 nm of 0.4, indicative of the mid-logarithmic phase. The cells were then washed and diluted to an O.D. 600 of 0.05 using 1× PBS buffer. The dye (SYTOX Green nucleic acid stain) was added to the bacterial suspension at a concentration of […], and the mixture was incubated at 4 °C for 18 h with agitation in the dark. The SYTOX Green-treated bacteria were placed in a quartz cell, where they were simultaneously exposed to the positive control melittin (2× MIC), the negative control buforin-2 (2× MIC), and the F2 dimer (2× MIC). An F-4500 FL fluorescence spectrophotometer (Shimadzu, Kyoto, Japan) was used to monitor fluorescence (excitation 485 nm, emission 520 nm).

For test [6], the system named is E. coli ML-35. Description: ONPG hydrolysis assay (inner membrane permeability). The test is classed as cell-based, Escherichia coli. To be noted: 32 µM F2, 4 µM melittin, 16 µM buforin-2, Figure 4. On the procedure: The internal membrane permeability was assessed using the ONPG hydrolysis assay, as described previously. E. coli ML-35p, which constitutively expresses cytoplasmic β-galactosidase and periplasmic β-lactamase, is resistant to ampicillin and deficient in lactose permease. E. coli ML-35 was incubated in LB broth containing ampicillin at 37 °C until the optical density (O.D.) at 600 nm reached 1.0. The cells were then washed with a buffer consisting of 97% 1× PBS and 3% LB and diluted to an O.D. 600 of 0.4 in the same buffer. A mixture of 50 μL of serially diluted peptide and 20 μL of dye (ONPG, final concentration 3 mM) was added to 100 μL of the bacterial suspension in a sterilized 96-well plate. Melittin served as a positive control, while buforin-2 was used as a negative control. The hydrolysis of ONPG was measured using a PHOMO Elisa reader (Autobio, Zhengzhou, China) at 405 nm for each time period.

Test [7] has as its system plasmid DNA (pHIS2). The test can be described thus: DNA-binding gel retardation assay. To be noted: plasmid pHIS2 145 μg/mL, 37 °C, 1 h, 1% agarose gel; Figure 5. On the procedure:
We evaluated the DNA-binding ability of F2 and F2 (C4S) monomeric peptides using gel retardation experiments. The concentration of plasmid DNA (pHIS2) was fixed at 145 μg/mL. The peptide was serially diluted in a binding buffer consisting of 10 mM Tris-HCl (pH 8.0), 5% glucose, 50 μg/mL BSA, 1 mM EDTA, and 20 mM KCl. This solution was then mixed with the DNA and incubated at 37 °C for 1 h. After incubation, the DNA–peptide mixture was stained with DNA gel loading dye. The samples were analyzed using 1% agarose gel electrophoresis in 0.5× TAE buffer. Plasmid bands were detected with a UV illuminator (Bio-Rad, Hercules, CA, USA).

Test [8] deals with Bacillus subtilis. Type of test: cell-based. To be noted: 24 h. On the procedure:
as §1

The subject of test [9] is Escherichia coli. The test is classed as cell-based. To be noted: 24 h. On the procedure: as §1
The test system of test [10] is Pseudomonas aeruginosa. Type of test: cell-based. To be noted: 24 h. On the procedure: as §1
Test [11] relates to Salmonella typhimurium. Type of test: cell-based. To be noted: murium, 24 h. On the procedure:
as §1

The test system of test [12] is Staphylococcus aureus. Type of test: cell-based. To be noted: 24 h. The protocol: as §1
For test [13], the system named is Staphylococcus epidermidis. Type of test: cell-based. To be noted: 24 h. On the procedure:
as §1

For test [14], the system named is bacterial strains. Type of test: cell-based. To be noted: strain not given; see Tables 1 and 2. On the procedure:
as §1

The target of test [15] is F2 (rattusin fragment, residues 12-18, dimeric hairpin loop region) (rat). The test can be described thus: RP-HPLC; monomeric F2 (before disulfide bonding) incubated in MIC buffer; formation of the disulfide-bonded dimer monitored by RP-HPLC.

In general, MIC refers to the smallest concentration in the dilution series that meets the test's criterion for growth inhibition. Read a high MIC as a need for much substance. For the molecule `CC(C)[C@H](NC(=O)[C@H](CCCNC(=N)N)NC(=O)[C@@H](N)CCCNC(=N)N)C(=O)N[C@@H](CSSC[C@H](NC(=O)[C@@H](NC(=O)[C@H](CCCNC(=N)N)NC(=O)[C@@H](N)CCCNC(=N)N)C(C)C)C(=O)N[C@@H](CCCNC(=N)N)C(=O)N[C@@H](CC(N)=O)C(=O)N[C@H](C(N)=O)[C@@H](C)O)C(=O)N[C@@H](CCCNC(=N)N)C(=O)N[C@@H](CC(N)=O)C(=O)N[C@H](C(N)=O)[C@@H](C)O` [F2] (I: H-RRVCRNT-NH2 / II: H-RRVCRNT-NH2; disulfide I:4-II:4; N-terminus assumed), the MIC was 58 µg/mL (≈ 32.1 µM) in test [1]; 116 µg/mL (≈ 64.3 µM) in test [2]; 58 µg/mL (≈ 32.1 µM) in [3]; 29 µg/mL (≈ 16.1 µM) in test [8]; 15 µg/mL (≈ 8.31 µM) in [9]; 15 µg/mL (≈ 8.31 µM) in test [10]. Further, the MIC was determined as 15 µg/mL (≈ 8.31 µM) in test [11], 58 µg/mL (≈ 32.1 µM) in test [12], 15 µg/mL (≈ 8.31 µM) in [13] and 15 µg/mL (≈ 8.31 µM) in [14]. Besides, the “cytoplasmic membrane depolarization (DiSC3-(5) fluorescence)” value in test [4] is reported as “did not cause any membrane depolarization”. Besides, in test [5], the “SYTOX Green uptake (fluorescence intensity)” value is “did not show a similar increase in fluorescence intensity”. Also, in test [6], the “ONPG hydrolysis (absorbance at 405 nm)” value is given as “did not alter the absorbance”. Besides, the “peptide concentration giving DNA band retardation” value in [7] turned out to be 4 µM.

What is called stoichiometry N is the number of molecules, sites or subunits per partner or assembly. In turn, “F2 (rattusin fragment, residues 12-18, dimeric hairpin loop region) (peptide)” came in with a stoichiometry N in test [15] of 2.
